Results published in US9777037B2, “Neurosteroid compounds” (BIONATURE E. A. LTD., priority 2007, dated 2017).

What was measured:
[1] = test system: tyrosine hydroxylase mRNA; experiment: Tyrosine hydroxylase (TH) RT-PCR in dopaminergic PC12 cells; assay type: cell-based, rat; conditions: dopaminergic PC12 cells (FIG. 6C)
Protocol: Tyrosine Hydroxylase (TH) RT-PCR: Total RNA was extracted from dopaminergic PC12 cells using the Trizol Reagent (Invitrogen Life technologies, CA). One microgram of total RNA was reverse transcribed by the Thermo-Script RT-PCR System (Invitrogen) using random hexamers in a total volume of 20 μl. Two microliters of the RT product was used as a template, amplified by PCR using 2 mM MgCl2, one strength PCR buffer, 0.2 mM of sense and antisense primers, 0.2 mM dNTPs and 2.5 U AmpliTaq Gold DNA polymerase (Perkin Elmer ABD, Foster City, Calif.) in a final reaction volume of 50 μl. PCR was performed in a Perkin Elmer DNA Thermal Cycler. Primers for TH were 5′-[…]-3′ (sense), and 5-[…]-3 (antisense) and for G3PDH were, 5′-[…]-3′ (sense), and 5′-[…]-3′ (antisense). Oligonucleotides were synthesized by MWG-Biotech AG (Munich, Germany). After reverse transcription, the cDNA product was amplified by PCR, at 33 cycles. The cycle number (33) was chosen such that amplification of the products was in the linear range with respect to the amount of input cDNA. PCR for G3PDH was performed in parallel to assure good quality of RNA and cDNA preparations. Each cycle consisted of 60 s at 92° C. for denaturation, 120 s at 53° C. for annealing, and 180 s at 72° C. for extension (60 s at 98° C., 90 s at 55° C., and 150 s at 72° C. for G3PDH respectively). 10 μl of the amplified products (368 bp for TH and 983 bp for G3PDH) were separated on a 2% agarose gel and visualized by ethidium bromide staining.

[2] = test system: Ishikawa cells; experiment: Ishikawa cell growth (MTT), estrogen agonism/antagonism; assay type: cell-based, human
Description: Treatment of postmenopausal syndromes with 17β-estradiol (E2) is associated with a higher risk of developing breast and/or endometrial cancer (Arch Intern Med. 166, 1027 (2006)). E2 stimulation of the proliferation of cancer cells is driven by estrogen receptor alpha (ERα) (Mol. Endocrinol. 13, 969 (1999)). Since BNN-50, BNN-93 and BNN-124 may form two hydrogen bonds with an O—O distance of 10.9-12.5 Å and thus may fit the ERα binding cavity (Chem. Biol. 11, 397 (2004)), it was imperative to examine the estrogen agonism/antagonism properties of these neurosteroids using human adenocarcinoma cells from breast (MCF-7 cells) and uterus (Ishikawa cells) as reporters. […] Differences between control and neurosteroid-treated cells were assessed using one-way ANOVA. […]
To determine neurosteroid effects on the growth of MCF-7 human mammary (from ATCC) and Ishikawa endometrial adenocarcinoma cells (from ECACC), the cells were cultured at 37° C. in Dulbecco's Minimal Essential Medium (DMEM) supplemented with 10% Fetal Bovine Serum (FBS, from Biochrom) in 5% CO2 and subcultured using a trypsin 0.25%-EDTA 0.02% solution. Neurosteroid effects on the growth of the cells were assessed using MTT [3-(4,5-dimethylthiazol-2-yl)-2,5-diphenyltetrazolium bromide] and standard methodology (Chem. Biol. 11, 397 (2004)). […]

[3] = test system: Ishikawa cells; experiment: Alkaline phosphatase activity of Ishikawa cells, estrogen agonism/antagonism; assay type: cell-based, human
Description: Treatment of postmenopausal syndromes with 17β-estradiol (E2) is associated with a higher risk of developing breast and/or endometrial cancer (Arch Intern Med. 166, 1027 (2006)). E2 stimulation of the proliferation of cancer cells is driven by estrogen receptor alpha (ERα) (Mol. Endocrinol. 13, 969 (1999)). Since BNN-50, BNN-93 and BNN-124 may form two hydrogen bonds with an O—O distance of 10.9-12.5 Å and thus may fit the ERα binding cavity (Chem. Biol. 11, 397 (2004)), it was imperative to examine the estrogen agonism/antagonism properties of these neurosteroids using human adenocarcinoma cells from breast (MCF-7 cells) and uterus (Ishikawa cells) as reporters. Full estrogen agonism (E2 at ≧0.1 nM) and non-agonism (vehicle only) controls served to classify the neurosteroids as super, full, partial, weak and marginal agonists depending on whether their estrogenic efficacy was >100, 76-100, 26-75, 10-25 and 1-10% of that of E2 (set equal to 100). Similarly, full antagonism of the effect of E2 (at 0.1 nM) by ICI 182, 780 (at ≧10 nM) and non-antagonism (vehicle only) controls served to classify the neurosteroids as full, partial, weak and marginal antagonists depending on whether their suppression of the effect of E2 was 76-100, 26-75, 10-25 and 1-10% of that of ICI 182, 780. Differences between control and neurosteroid-treated cells were assessed using one-way ANOVA. […]

## C[C@]12CC[C@H](O)CC1=CCC1C2CC[C@@]2(C)C1CC[C@@]21CO1 (stereo partly drawn) [BNN-50, 17β-spiro-[5-androsten-17,2′-oxiran]-3β-ol]
[1]
  induction of tyrosine hydroxylase mRNA: strong induction
[2]
  E2 agonism (at 1 uM), Ishikawa cell growth: non-significant
[2]; against E2 at 0.1 nM
  E2 antagonism (at 1 uM), Ishikawa cell growth: non-significant
[3]
  E2 agonism (at 1 uM), Ishikawa AlkP: non-significant
[3]; against E2 at 0.1 nM
  E2 antagonism (at 1 uM), Ishikawa AlkP: marginal (1-10% of that of ICI 182, 780)
